{"source": "paper PMC7926352", "about": "“Synthesis, Characterization and In Vitro Evaluation of Novel 5-Ene-thiazolo[3,2-b][1,2,4]triazole-6(5H)-ones as Possible Anticancer Agents” (Molecules, 2021)", "key": {"[1]": {"test_system": "NCI-H460"}, "[2]": {"test_system": "SK-MEL-28"}, "[3]": {"test_system": "MOLT-4"}, "[4]": {"test_system": "HT29"}, "[5]": {"test_system": "SK-MEL-2"}, "[6]": {"test_system": "BT-549"}, "[7]": {"test_system": "SN12C"}, "[8]": {"test_system": "NCI/ADR-RES"}, "[9]": {"test_system": "RXF 393"}, "[10]": {"test_system": "M14"}, "[11]": {"test_system": "786-0"}, "[12]": {"test_system": "CAKI-1"}, "[13]": {"test_system": "K-562"}, "[14]": {"test_system": "MCF7"}, "[15]": {"test_system": "SNB-75"}, "[16]": {"test_system": "Renal Cancer cell lines"}, "[17]": {"test_system": "DU-145"}, "[18]": {"test_system": "RPMI-8226"}, "[19]": {"test_system": "OVCAR-3"}, "[20]": {"test_system": "ACHN"}, "[21]": {"test_system": "SR"}, "[22]": {"test_system": "MDA-MB-435"}, "[23]": {"test_system": "TK-10"}, "[24]": {"test_system": "MALME-3M"}, "[25]": {"test_system": "OVCAR-8"}, "[26]": {"test_system": "MDA-MB-231/ATCC"}, "[27]": {"test_system": "Leukemia cell lines", "set-up": "LC50, values range inside panel: unit not given beside the values"}, "[28]": {"test_system": "OVCAR-5"}, "[29]": {"test_system": "PC-3"}, "[30]": {"test_system": "SW-620"}, "[31]": {"test_system": "SK-OV-3"}, "[32]": {"test_system": "HOP-62"}, "[33]": {"test_system": "SF-539"}, "[34]": {"test_system": "NCI-H522"}, "[35]": {"test_system": "A498"}, "[36]": {"test_system": "Melanoma cell lines"}, "[37]": {"test_system": "Prostate Cancer cell lines", "set-up": "LC50, values range inside panel: unit not given beside the values"}, "[38]": {"test_system": "KM12"}, "[39]": {"test_system": "SF-295"}, "[40]": {"test_system": "HCT-116"}, "[41]": {"test_system": "EKVX"}, "[42]": {"test_system": "SK-MEL-5"}, "[43]": {"test_system": "Breast Cancer cell lines"}, "[44]": {"test_system": "U251"}, "[45]": {"test_system": "SF-268"}, "[46]": {"test_system": "UO-31"}, "[47]": {"test_system": "UACC-62"}, "[48]": {"test_system": "CNS Cancer cell lines", "set-up": "LC50, values range inside panel: unit not given beside the values"}, "[49]": {"test_system": "OVCAR-4"}}}
{"substance": "Ethyl(Z)-4-(3-(4-chloro-2-((6-oxothiazolo[3,2-b][1,2,4]triazol-5(6H)-ylidene)methyl)phenyl)propanamido)benzoate [Compound 2i]", "values": [{"measurement": "CC50", "setting": "[1]", "value": 56.2, "unit": "µM"}, {"measurement": "CC50", "setting": "[2]", "value": 49, "unit": "µM"}, {"measurement": "CC50", "setting": "[3]", "value": "> 100", "unit": "µM"}, {"measurement": "CC50", "setting": "[4]", "value": 49, "unit": "µM"}, {"measurement": "CC50", "setting": "[5]", "value": 77.6, "unit": "µM"}, {"measurement": "CC50", "setting": "[6]", "value": 60.2, "unit": "µM"}, {"measurement": "CC50", "setting": "[7]", "value": 58.9, "unit": "µM"}, {"measurement": "CC50", "setting": "[8]", "value": "> 100", "unit": "µM"}, {"measurement": "CC50", "setting": "[9]", "value": 58.9, "unit": "µM"}, {"measurement": "CC50", "setting": "[10]", "value": 58.9, "unit": "µM"}, {"measurement": "CC50", "setting": "[11]", "value": 51.3, "unit": "µM"}, {"measurement": "CC50", "setting": "[12]", "value": 55, "unit": "µM"}, {"measurement": "CC50", "setting": "[13]", "value": "> 100", "unit": "µM"}, {"measurement": "CC50", "setting": "[14]", "value": 50.1, "unit": "µM"}, {"measurement": "CC50", "setting": "[15]", "value": "> 100", "unit": "µM"}, {"measurement": "CC50", "setting": "[16]", "value": 55, "unit": "µM"}, {"measurement": "CC50", "setting": "[17]", "value": 36.3, "unit": "µM"}, {"measurement": "CC50", "setting": "[18]", "value": 95.5, "unit": "µM"}, {"measurement": "CC50", "setting": "[19]", "value": 55, "unit": "µM"}, {"measurement": "CC50", "setting": "[20]", "value": 53.7, "unit": "µM"}, {"measurement": "CC50", "setting": "[21]", "value": "> 100", "unit": "µM"}, {"measurement": "CC50", "setting": "[22]", "value": "> 100", "unit": "µM"}, {"measurement": "CC50", "setting": "[23]", "value": 51.3, "unit": "µM"}, {"measurement": "CC50", "setting": "[24]", "value": 53.7, "unit": "µM"}, {"measurement": "CC50", "setting": "[25]", "value": 85.1, "unit": "µM"}, {"measurement": "CC50", "setting": "[26]", "value": "> 100", "unit": "µM"}, {"measurement": "CC50", "setting": "[27]", "value": 99.2, "unit": "µM"}, {"measurement": "LC50, values range inside panel", "setting": "[27]", "value": "95.49– >100"}, {"measurement": "CC50", "setting": "[28]", "value": 58.9, "unit": "µM"}, {"measurement": "CC50", "setting": "[29]", "value": "> 100", "unit": "µM"}, {"measurement": "CC50", "setting": "[30]", "value": 46.8, "unit": "µM"}, {"measurement": "CC50", "setting": "[31]", "value": 61.6, "unit": "µM"}, {"measurement": "CC50", "setting": "[32]", "value": 53.7, "unit": "µM"}, {"measurement": "CC50", "setting": "[33]", "value": 50.1, "unit": "µM"}, {"measurement": "CC50", "setting": "[34]", "value": 72.4, "unit": "µM"}, {"measurement": "CC50", "setting": "[35]", "value": 56.2, "unit": "µM"}, {"measurement": "CC50", "setting": "[36]", "value": "42.6 to 77.6", "unit": "µM"}, {"measurement": "CC50", "setting": "[37]", "value": 68.2, "unit": "µM"}, {"measurement": "LC50, values range inside panel", "setting": "[37]", "value": "36.30– >100"}, {"measurement": "CC50", "setting": "[38]", "value": 55, "unit": "µM"}, {"measurement": "CC50", "setting": "[39]", "value": 51.3, "unit": "µM"}, {"measurement": "CC50", "setting": "[40]", "value": 55, "unit": "µM"}, {"measurement": "CC50", "setting": "[41]", "value": 50.1, "unit": "µM"}, {"measurement": "CC50", "setting": "[42]", "value": 46.8, "unit": "µM"}, {"measurement": "CC50", "setting": "[43]", "value": 73.2, "unit": "µM"}, {"measurement": "CC50", "setting": "[44]", "value": 43.6, "unit": "µM"}, {"measurement": "CC50", "setting": "[45]", "value": "> 100", "unit": "µM"}, {"measurement": "CC50", "setting": "[46]", "value": 55, "unit": "µM"}, {"measurement": "CC50", "setting": "[47]", "value": 51.3, "unit": "µM"}, {"measurement": "CC50", "setting": "[48]", "value": 66.2, "unit": "µM"}, {"measurement": "LC50, values range inside panel", "setting": "[48]", "value": "43.65– >100"}, {"measurement": "CC50", "setting": "[49]", "value": "> 100", "unit": "µM"}]}
